# Experimental data reported in US9718840B2, “Condensed 5-oxazolidinone derivative” (SUMITOMO DAINIPPON PHARMA CO., LTD., priority 2014, dated 2017).
# Key:
# [1] = system: Rabbit venous thrombus models; assay: Effect of combined use with antiplatelet drug using rabbit AVST model; format: in vivo; details: alone, dose 0.67 + 1.0 mg/kg + mg/kg/h i.v.
# Experimental: Rabbit venous thrombus models were prepared by a modification of the report of Wong et al. (Wong P C. et al., J. Pharmacol. Exp. Ther. 292: 351-357 (2000)). […] A tracheostomy tube was inserted to each rabbit, which was then ventilated using a respirator. For the intravenous administration of a test drug and blood collection, catheters were inserted to the right femoral vein and the right femoral artery, respectively. An arteriovenous shunt filled with saline was inserted to the carotid artery and the jugular vein. […] Also, 4-0 silk thread having a length of 5 cm was indwelled in the arteriovenous shunt. Blood was sent for 30 minutes from the carotid artery to the jugular vein via the arteriovenous shunt. The shunt was removed, and the weight of the silk thread covered with thrombus was measured. The weight of the silk thread measured before the experiment was subtracted from the measured weight, and the obtained value was used as a wet thrombus weight. One hour before the open of the arteriovenous shunt, the test drug or a vehicle was promptly intravenously administered (0.67 mL/kg) and then continuously intravenously administered (1 mL/kg/hr). The continuous injection was continued throughout the experiment. […] STA calcium chloride (manufactured by Roche Diagnostics K.K.) was added in an amount equal thereto, and the time required for coagulation was measured.
# [2] = system: Rabbit nail bleeding models; assay: Effect of combined use with antiplatelet drug using rabbit nail bleeding model; format: in vivo; details: alone, dose 0.67 + 1.0 mg/kg + mg/kg/h i.v.
# Experimental: Rabbit nail bleeding models were prepared by a modification of the report of Wong et al. (Wong P C. et al., J. Thromb. Haemost. 7: 1313-1320 (2009)). Male rabbits (JW, 1.5 to 3.5 kg) were anesthetized by the inhalation of isoflurane (ISOFLU®, manufactured by DS Pharma Animal Health Co., Ltd.) (introduced anesthesia: 4%, continuous anesthesia: 2 to 3%). For the intravenous administration of a test drug or a vehicle, an indwelling needle was inserted to the auricular vein, and the test drug or the vehicle was promptly intravenously administered (0.67 mL/kg) and then continuously intravenously administered (1 mL/kg/hr). One hour after the start of administration, three posterior toenails were cut and dipped in saline heated to approximately 37° C., and the bleeding time was measured. The bleeding time was defined as a time from the cutting to the arrest of bleeding, and an average value from the three nails was used. The measurement time was 60 minutes at the maximum. If bleeding for 60 minutes or longer was confirmed, the bleeding time was regarded as 60 minutes.
# [3] = Ester metabolism stability test: metabolite identification by LC-MS
# Description: The metabolites were identified using LC (LC-Nexera X2 manufactured by Shimadzu Corp.)-MS (API4000 manufactured by AB Sciex Pte Ltd.).
# [4] = system: male cynomolgus monkey; assay: Cynomolgus monkey aPTT evaluation test; format: in vivo
# Experimental: The compound of Example 7 was suspended in a 0.5% aqueous methylcellulose solution, and this suspension was orally administered at a dose of 10 mg/5 mL/kg or 30 mg/5 mL/kg to a male cynomolgus monkey fasted for 16 hours. Blood collection for aPTT evaluation was carried out before administration and 0.5, 1, 2, 4, 6, and 24 hours after administration. 0.9 mL of blood was collected using a syringe packed with 100 μL of 3.2% sodium citrate, transferred to a centrifugal tube cooled in ice, and centrifuged at 2100 g at 4° C. for 10 minutes to prepare plasma. After incubation at 37° C. for 6 minutes, an STA reagent Cephascreen (for aPTT assay; manufactured by Roche Diagnostics K.K.) was added in an amount equal to the amount of the plasma, and the mixture was further incubated for 4 minutes. STA calcium chloride (manufactured by Roche Diagnostics K.K.) was added in an amount equal to the amount of the plasma, and the time required for coagulation was measured. Blood collection for the measurement of the compound concentration was carried out 0.5, 1, 2, 4, 6, and 24 hours after administration. 1 mL of blood was collected using a syringe packed with 10 μL of Novo-Heparin Injection, transferred to a centrifugal tube cooled in ice, and centrifuged at 2100 g at 4° C. for 10 minutes to prepare plasma. 200 μL of the prepared plasma was added to a tube containing 600 μL of acetonitrile and mixed for approximately 10 seconds using a vortex mixer. Then, the concentration of the compound of Reference Example 2-6 (a value based on the free form) was measured.
# [5] = system: human plasma; assay: Ester metabolism stability test: stability in human plasma; format: in vitro ADME; details: 37° C., 20 minutes
# Experimental: 198 μL of human plasma (manufactured by Cosmo Bio Inc.) was added to 2 μL of a DMSO solution containing a 100 μmol/L test substance, and the mixture was incubated at 37° C. for 20 minutes. After the incubation, the metabolic reaction was terminated by the addition of 600 μL of acetonitrile.
# [6] = Ester metabolism stability test: stability in human liver; format: in vitro ADME; details: 37° C., 20 minutes, with NADPH
# Experimental: A reaction solution containing 5 μL of human liver S9 (manufactured by Sekisui XenoTech, LLC, 20 mg/mL) mixed with 20 μL of 500 mmol/L Kpi (pH 7.4), 40 μL of a 5 mmol/L aqueous solution of NADPH (manufactured by Oriental Yeast Co., Ltd.), and 133 μL of ion-exchange water was added to 2 μL of a DMSO solution containing a 100 μmol/L test substance, and the mixture was incubated at 37° C. for 20 minutes. After the incubation, the metabolic reaction was terminated by the addition of 600 μL of acetonitrile.
# [7] = metabolites identified using LC-MS
# [8] = oral 10 mg/kg, 0 hr (before administration)
# [9] = oral 30 mg/kg, 0 hr (before administration)
smiles,measurement,setting,value
CC(=O)Oc1ccccc1C(=O)O [Aspirin],PT (ratio),[1],0.99 ± 0.01 ratio
same,Thrombus weight,[1],96 ± 9 mg
same,aPTT (ratio),[1],0.97 ± 0.01 ratio
same,Bleeding time,"[2]; rabbit, maximum 60 minutes",1087 ± 522 s
same,Bleeding time (fold-increase),[2]; ratio to vehicle group average,1.9 ± 0.9 fold-increase
"Cl.N[C@H](CF)[C@H]1CC[C@H](C(=O)N2CC[C@@H](C3CCCCC3)[C@H]2C(=O)Nc2ccc3c(c2)cc2n3C3(CCC3)OC2=O)CC1 [Example 7, (3S)-1-({trans-4-[(1S)-1-amino-2-fluoroethyl]cyclohexyl}carbonyl)-3-cyclohexyl-N-(1′-oxo-1′H-spiro[cyclobutane-1,3′-[1,3]oxazolo[3,4-a]indol]-7′-yl)-L-prolinamide hydrochloride]",Metabolite formed (conversion by metabolism),[3]; [7],converted to the compound of Reference Example 2-6
same,aPTT,[4]; [8],23.8 ± 2.2 s
same,aPTT (ratio),[4]; [8],1.00 ± 0.00 ratio
same,aPTT,"[4]; oral 10 mg/kg, 0.5 hr",26.9 ± 3.3 s
same,aPTT (ratio),"[4]; oral 10 mg/kg, 0.5 hr",1.13 ± 0.03 ratio
same,aPTT,"[4]; oral 10 mg/kg, 1 hr",30.5 ± 3.0 s
same,aPTT (ratio),"[4]; oral 10 mg/kg, 1 hr",1.29 ± 0.04 ratio
same,aPTT,"[4]; oral 10 mg/kg, 2 hr",36.5 ± 4.1 s
same,aPTT (ratio),"[4]; oral 10 mg/kg, 2 hr",1.53 ± 0.07 ratio
same,aPTT,"[4]; oral 10 mg/kg, 4 hr",38.5 ± 3.5 s
same,aPTT (ratio),"[4]; oral 10 mg/kg, 4 hr",1.62 ± 0.00 ratio
same,aPTT,"[4]; oral 10 mg/kg, 6 hr",37.5 ± 4.5 s
same,aPTT (ratio),"[4]; oral 10 mg/kg, 6 hr",1.57 ± 0.06 ratio
same,aPTT,"[4]; oral 10 mg/kg, 24 hr",26.1 ± 3.2 s
same,aPTT (ratio),"[4]; oral 10 mg/kg, 24 hr",1.10 ± 0.06 ratio
same,aPTT,[4]; [9],23.9 ± 1.6 s
same,aPTT (ratio),[4]; [9],1.00 ± 0.00 ratio
same,aPTT,"[4]; oral 30 mg/kg, 0.5 hr",27.6 ± 3.2 s
same,aPTT (ratio),"[4]; oral 30 mg/kg, 0.5 hr",1.15 ± 0.10 ratio
same,aPTT,"[4]; oral 30 mg/kg, 1 hr",32.8 ± 2.8 s
same,aPTT (ratio),"[4]; oral 30 mg/kg, 1 hr",1.37 ± 0.03 ratio
same,aPTT,"[4]; oral 30 mg/kg, 2 hr",36.9 ± 0.8 s
same,aPTT (ratio),"[4]; oral 30 mg/kg, 2 hr",1.55 ± 0.07 ratio
same,aPTT,"[4]; oral 30 mg/kg, 4 hr",39.4 ± 1.4 s
same,aPTT (ratio),"[4]; oral 30 mg/kg, 4 hr",1.65 ± 0.12 ratio
same,aPTT,"[4]; oral 30 mg/kg, 6 hr",39.4 ± 1.5 s
same,aPTT (ratio),"[4]; oral 30 mg/kg, 6 hr",1.65 ± 0.12 ratio
same,aPTT,"[4]; oral 30 mg/kg, 24 hr",34.0 ± 3.3 s
same,aPTT (ratio),"[4]; oral 30 mg/kg, 24 hr",1.42 ± 0.05 ratio
same,Residual rate (%) Human plasma,[5],<1%
same,Residual rate (%) Human liver S9,[6],71%
Cl.NC[C@H]1CC[C@H](C(=O)N2CC[C@@H](C3CCCCC3)[C@H]2C(=O)Nc2ccc3c(c2)cc2n3C(CF)(CF)OC2=O)CC1 [Example 18],Metabolite formed (conversion by metabolism),"[3]; human, 20 min, 1 μmol/L",converted to the compound of Example 23
same,Residual rate (%) Human plasma,[5],15%
same,Residual rate (%) Human liver S9,[6],78%
"CC1(C)OC(=O)c2cc3cc(NC(=O)[C@@H]4[C@H](c5ccccc5)CCN4C(=O)[C@H]4CC[C@H]([C@H](N)CF)CC4)ccc3n21.Cl [Example 19, (3S)-1-({trans-4-[(1S)-1-amino-2-fluoroethyl]cyclohexyl}carbonyl)-N-(3,3-dimethyl-1-oxo-1H-[1,3]oxazolo[3,4-a]indol-7-yl)-3-phenyl-L-prolinamide]",Metabolite formed (conversion by metabolism),[3]; [7],Reference Example 19-1
same,Residual rate (%) Human plasma,[5],15%
same,Residual rate (%) Human liver S9,[6],93%
"CC1(C)OC(=O)c2cc3cc(NC(=O)[C@@H]4[C@@H](c5ccccc5)CCN4C(=O)[C@H]4CC[C@H]([C@H](N)CF)CC4)ccc3n21.Cl [Example 20, (3R)-1-({trans-4-[(1S)-1-amino-2-fluoroethyl]cyclohexyl}carbonyl)-N-(3,3-dimethyl-1-oxo-1H-[1,3]oxazolo[3,4-a]indol-7-yl)-3-phenyl-L-prolinamide]",Metabolite formed (conversion by metabolism),[3]; [7],Reference Example 20-5
same,Residual rate (%) Human plasma,[5],11%
same,Residual rate (%) Human liver S9,[6],93%
